Measurements published in paper PMC6979384, “Characterization of the plant homeodomain (PHD) reader family for their histone tail interactions” (Epigenetics & Chromatin, 2020).
Where no end group is shown, it is not given here.

How the values were obtained:
Experiment in all cases: Histone peptide microarray
Assay type in all cases: binding, human
ING1 = conditions: ING1, GST-tagged; arrays performed twice, n of 4
Text: (§1) To more comprehensively define the histone interactions of the 31 PHD readers identified from the domain microarray analyses, we probed each on an alternate microarray platform containing a library of 293 synthetic histone peptides with single or combinatorial PTMs (Additional file 2: Figure S4 and Additional file 3: Table S2).
(§2) The 31 GST-tagged PHD readers identified in the PHD finger domain array were expressed and purified as previously. Histone peptide arrays and peptide pulldown assays were conducted as recently described (specifically, the optimized protocol from Petell et al. for the former).
(§3) Supplementary file 13072_2020_328_MOESM3_ESM.xlsx: Additional file 3: Table S2. […] Excel Tab Peptide List is a compiled list of the entire 293 histone peptide library with amino acid sequence ranges. […] Each number corresponds to the peptide number designated in Peptide List. Excel Tab Average Signals is a compiled set of binding data: chromatin reader at 0.5 μM vs. entire 293 peptide library. Data is presented as the average and standard deviation of 4 replicates. The average signals are colored to indicate signal intensity with green being strong and white being weak/low. […] Key: red= stronger relative binding; blue = weaker relative binding. Excel Tab Array info summary is a table summarizing the domains, sequence coverage, array signal range, and noise for each of the GST-tagged readers assayed on the peptide microarrays.

BAZ2B = conditions: BAZ2B, GST-tagged; arrays performed twice, n of 4
Text: as §1, §2, §3

PHF13 = conditions: PHF13, GST-tagged; arrays performed twice, n of 4
Text: as §1, §2, §3

KDM5A (3) = conditions: KDM5A (3), GST-tagged; arrays performed twice, n of 4
Text: as §1, §2, §3

MORC3 (CW) = conditions: MORC3 (CW), GST-tagged; arrays performed twice, n of 4
Text: as §1, §2, §3

KDM5B (3) = conditions: KDM5B (3), GST-tagged; arrays performed twice, n of 4
Text: as §1, §2, §3

CHD4 (PPCC) = conditions: CHD4 (PPCC), GST-tagged; arrays performed twice, n of 4
Text: as §1, §2, §3

ING4 = conditions: ING4, GST-tagged; arrays performed twice, n of 4
Text: as §1, §2, §3

KDM4C (TTP) = conditions: KDM4C (TTP), GST-tagged; arrays performed twice, n of 4
Text: as §1, §2, §3

ING2 = conditions: ING2, GST-tagged; arrays performed twice, n of 4
Text: as §1, §2, §3

BPTF (PB) = conditions: BPTF (PB), GST-tagged; arrays performed twice, n of 4
Text: as §1, §2, §3

PHF21A = conditions: PHF21A, GST-tagged; arrays performed twice, n of 4
Text: as §1, §2, §3

CHD5 (PPCC) = conditions: CHD5 (PPCC), GST-tagged; arrays performed twice, n of 4
Text: as §1, §2, §3

PHF8 = conditions: PHF8, GST-tagged; arrays performed twice, n of 4
Text: as §1, §2, §3

PHRF1 (RP) = conditions: PHRF1 (RP), GST-tagged; arrays performed twice, n of 4
Text: as §1, §2, §3

KDM7A = conditions: KDM7A, GST-tagged; arrays performed twice, n of 4
Text: as §1, §2, §3

KDM5B (1) = conditions: KDM5B (1), GST-tagged; arrays performed twice, n of 4
Text: as §1, §2, §3

ING5 = conditions: ING5, GST-tagged; arrays performed twice, n of 4
Text: as §1, §2, §3

MLL5 = conditions: MLL5, GST-tagged; arrays performed twice, n of 4
Text: as §1, §2, §3

DIDO1 = conditions: DIDO1, GST-tagged; arrays performed twice, n of 4
Text: as §1, §2, §3

KDM5A (1) = conditions: KDM5A (1), GST-tagged; arrays performed twice, n of 4
Text: as §1, §2, §3

DPF2 (PPC2W2) = conditions: DPF2 (PPC2W2), GST-tagged; arrays performed twice, n of 4
Text: as §1, §2, §3

CHD5 (PCC) = conditions: CHD5 (PCC), GST-tagged; arrays performed twice, n of 4
Text: as §1, §2, §3

PHF2 = conditions: PHF2, GST-tagged; arrays performed twice, n of 4
Text: as §1, §2, §3

PHF23 = conditions: PHF23, GST-tagged; arrays performed twice, n of 4
Text: as §1, §2, §3

AIRE (PP) = conditions: AIRE (PP), GST-tagged; arrays performed twice, n of 4
Text: as §1, §2, §3

TAF3 = conditions: TAF3, GST-tagged; arrays performed twice, n of 4
Text: as §1, §2, §3

ING3 = conditions: ING3, GST-tagged; arrays performed twice, n of 4
Text: as §1, §2, §3

SP140L = conditions: SP140L, GST-tagged; arrays performed twice, n of 4
Text: as §1, §2, §3

RAG2 = conditions: RAG2, GST-tagged; arrays performed twice, n of 4
Text: as §1, §2, §3

TRIM66 (PB) = conditions: TRIM66 (PB), GST-tagged; arrays performed twice, n of 4
Text: as §1, §2, §3

Row | Substance | Array Heatmap value (peptide array binding signal) (ING1) | Array Heatmap value (peptide array binding signal) (BAZ2B) | Array Heatmap value (peptide array binding signal) (PHF13) | Array Heatmap value (peptide array binding signal) (KDM5A (3)) | Array Heatmap value (peptide array binding signal) (MORC3 (CW)) | Array Heatmap value (peptide array binding signal) (KDM5B (3)) | Array Heatmap value (peptide array binding signal) (CHD4 (PPCC)) | Array Heatmap value (peptide array binding signal) (ING4) | Array Heatmap value (peptide array binding signal) (KDM4C (TTP)) | Array Heatmap value (peptide array binding signal) (ING2) | Array Heatmap value (peptide array binding signal) (BPTF (PB)) | Array Heatmap value (peptide array binding signal) (PHF21A) | Array Heatmap value (peptide array binding signal) (CHD5 (PPCC)) | Array Heatmap value (peptide array binding signal) (PHF8) | Array Heatmap value (peptide array binding signal) (PHRF1 (RP)) | Array Heatmap value (peptide array binding signal) (KDM7A) | Array Heatmap value (peptide array binding signal) (KDM5B (1)) | Array Heatmap value (peptide array binding signal) (ING5) | Array Heatmap value (peptide array binding signal) (MLL5) | Array Heatmap value (peptide array binding signal) (DIDO1) | further results
1 | H2A.Z (1-19) (N-ac): H2AZ 1-19 (Ac-AGGKAGKDSGKAKTKAVSR; UniProt P0C0S5 2-20, looked up, fragment) | 0.4946 | 0.3915 | 0.5558 | 0.4284 | 0.339 | 0.4159 | 0.5396 | 0.3991 | 0.4403 | 0.5892 | 0.3189 | 0.4295 | 0.4838 | 0.3344 | 0.3855 | 0.3467 | 0.624 | 0.2996 | 0.5006 | 0.6117 | Array Heatmap value (peptide array binding signal) (KDM5A (1)): 0.3887; Array Heatmap value (peptide array binding signal) (DPF2 (PPC2W2)): 0.6034; Array Heatmap value (peptide array binding signal) (CHD5 (PCC)): 0.7354; Array Heatmap value (peptide array binding signal) (PHF2): 0.4703; Array Heatmap value (peptide array binding signal) (PHF23): 0.4986; Array Heatmap value (peptide array binding signal) (AIRE (PP)): 0.3861; Array Heatmap value (peptide array binding signal) (TAF3): 0.2353; Array Heatmap value (peptide array binding signal) (ING3): 0.4524; Array Heatmap value (peptide array binding signal) (SP140L): 0.3411; Array Heatmap value (peptide array binding signal) (RAG2): 0.2204; Array Heatmap value (peptide array binding signal) (TRIM66 (PB)): 0.556
2 | H2A.Z (1-19): H2AZ 1-19 (AGGKAGKDSGKAKTKAVSR; UniProt P0C0S5 2-20, looked up, fragment) | 0.6166 | 0.5259 | 0.7054 | 0.4992 | 0.3781 | 0.4993 | 0.6658 | 0.5367 | 0.563 | 0.6115 | 0.4073 | 0.4938 | 0.6481 | 0.402 | 0.5374 | 0.3952 | 0.6378 | 0.4264 | 0.5607 | 0.7863 | Array Heatmap value (peptide array binding signal) (KDM5A (1)): 0.5328; Array Heatmap value (peptide array binding signal) (DPF2 (PPC2W2)): 0.7315; Array Heatmap value (peptide array binding signal) (CHD5 (PCC)): 0.7976; Array Heatmap value (peptide array binding signal) (PHF2): 0.6568; Array Heatmap value (peptide array binding signal) (PHF23): 0.5743; Array Heatmap value (peptide array binding signal) (AIRE (PP)): 0.4876; Array Heatmap value (peptide array binding signal) (TAF3): 0.3163; Array Heatmap value (peptide array binding signal) (ING3): 0.5693; Array Heatmap value (peptide array binding signal) (SP140L): 0.3948; Array Heatmap value (peptide array binding signal) (RAG2): 0.2847; Array Heatmap value (peptide array binding signal) (TRIM66 (PB)): 0.6377
